Results published in patent US10227308B2, “Radiolabeled cannabinoid receptor 2 ligand” (Hoffmann-La Roche Inc., priority 2014, dated 2019).

Columns and labels:
CB2 receptors [1] = molecular target: T1, CB2 receptors (Homo sapiens, UniProt P34972); assay: Radioligand competition binding of [^3H]-CP55940, CHO-K1 cell membranes; design: host or cells: CHO-K1 beta-arrestin cells; conditions: [^3H]-CP55940 0.3 nM, n=13
Procedure: (§1) CHO-K1 beta-arrestin cells (DiscoveRx Inc., Fremont, Calif.) expressing human CB1 and human CB2 were cultured in F-12 Nutrient Mixture (HAM) supplemented with 10% FBS, 300 μg ml-1 hygromycin and 800 μg ml-1 geneticin (G418). Cells were incubated in a humidified atmosphere at 37° C. with 5% CO2.
(§2) Stably transfected cells or spleen tissue were homogenized in 15 mmol L-1 Hepes, 0.3 mmol L-1 EDTA, 1 mmol L-1 EGTA, 2 mmol L-1 MgCl2, complete EDTA-free protease inhibitor (Roche Applied Science, Rotkreuz, Switzerland), pH 7.4 using a glass potter and centrifugation at 47,800 g at 4° C. for 30 min. The pellet was then rehomogenized twice in the same buffer and centrifuged (47,800 g, 4° C., 30 min). […]
(§3) For competition binding, membrane preparations were incubated either with 0.3 nM of [^3H]-CP55940 in the presence or absence of increasing concentrations of unlabeled (R^1═CH3) compound of formula (I) or with 1.5 nM compound of formula (I) and increasing amounts of membranes (2.5-80 μg) in the presence or absence of CP55940 (10 μM) for 60 min at 30° C. in a final volume of 0.2 mL of 50 mmol L-1 Tris-HCl, 5 mmol L-1 MgCl2, 2.5 mmol L-1 EGTA, 0.1% fatty acid-free BSA and 1% DMSO, pH 7.4, buffer, gently shaking. […] IC50 values and Hill slopes were determined by a four parameter logistic model using ActivityBase (ID Business Solution, Ltd.).

human CB1 receptors = molecular target: T2, human CB1 receptors (Homo sapiens, UniProt P21554); assay: as above; conditions: [^3H]-CP55940 0.3 nM, n=6
T2 construct: host or cells: CHO-K1 beta-arrestin cells
Procedure: as §1, §2, §3

CB2 receptors [2] = molecular target: T3, CB2 receptors (Mus musculus, UniProt P47936); assay: Radioligand binding (1.5 nM) with increasing amounts of membranes, mouse spleen tissue WT; conditions: 1.5 nM radioligand
T3 construct: from tissue; host or cells: mouse spleen (wild type)
Procedure: (§4) Stably transfected cells or spleen tissue were homogenized in 15 mmol L-1 Hepes, 0.3 mmol L-1 EDTA, 1 mmol L-1 EGTA, 2 mmol L-1 MgCl2, complete EDTA-free protease inhibitor (Roche Applied Science, Rotkreuz, Switzerland), pH 7.4 using a glass potter and centrifugation at 47,800 g at 4° C. for 30 min. The pellet was then rehomogenized twice in the same buffer and centrifuged (47,800 g, 4° C., 30 min). The final pellet was then resuspended in 75 mmol L-1 Tris, 0.3 mmol L-1 EDTA, 1 mmol L-1 EGTA, 12.5 mmol L-1 MgCl2, 250 mmol L-1 sucrose, pH 7.4 at a protein concentration of 1 to 3 mg mL-1, aliquoted, frozen on dry ice and stored at −80° C.
as §3

mouse CB2 receptors = molecular target: T4, mouse CB2 receptors (Mus musculus, UniProt P47936); assay: Radioligand saturation binding using mouse spleen tissue WT
T4 construct: from tissue; host or cells: mouse spleen (wild type)
Procedure: as §4
Saturation binding was performed with 0.05 to 2.4 nM compound of formula (I) and 40 μg of membrane protein. CP55940 (10 μM) was used to define nonspecific binding. Assay buffer consisted of 50 mmol L-1 Tris-HCl, 5 mmol L-1 MgCl2, 2.5 mmol L-1 EGTA, and 0.1% fatty acid-free BSA, pH 7.4. Assays were initiated by addition of membranes in a final volume of 250 μl/well. Assays were incubated for 2 h at room temperature and then vacuum filtered and rinsed with wash buffer (50 mmol L-1 Tris-HCl, 5 mmol L-1 MgCl2, 2.5 mmol L-1 EGTA, and 0.5% fatty acid-free BSA, pH 7.4) on a Filtermate cell harvester through Packard GF/B filters presoaked in 0.3% polyethylenimine.

[3] = Radioligand binding using mouse spleen KO (CB2 deficient mice); conditions: mouse spleen tissue from CB2 deficient mice, increasing amounts of membranes
Procedure: as §4, §3

CB2 receptors [4] = molecular target: T1, CB2 receptors; assay: Binding of HU-910 / [^3H]-HU-910 to CB2 receptors; conditions: CB2 receptors labeled with [^3H]-CP55940

T4 sequence (P47936 whole entry): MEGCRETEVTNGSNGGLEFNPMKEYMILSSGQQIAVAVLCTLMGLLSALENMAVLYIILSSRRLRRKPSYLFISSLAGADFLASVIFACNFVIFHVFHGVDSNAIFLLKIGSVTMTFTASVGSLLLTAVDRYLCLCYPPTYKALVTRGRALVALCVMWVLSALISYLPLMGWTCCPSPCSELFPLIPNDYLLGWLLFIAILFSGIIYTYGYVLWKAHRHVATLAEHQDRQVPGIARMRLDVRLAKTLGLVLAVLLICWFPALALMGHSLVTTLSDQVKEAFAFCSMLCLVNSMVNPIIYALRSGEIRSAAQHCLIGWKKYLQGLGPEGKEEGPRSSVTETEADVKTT
T1 sequence (P34972 whole entry): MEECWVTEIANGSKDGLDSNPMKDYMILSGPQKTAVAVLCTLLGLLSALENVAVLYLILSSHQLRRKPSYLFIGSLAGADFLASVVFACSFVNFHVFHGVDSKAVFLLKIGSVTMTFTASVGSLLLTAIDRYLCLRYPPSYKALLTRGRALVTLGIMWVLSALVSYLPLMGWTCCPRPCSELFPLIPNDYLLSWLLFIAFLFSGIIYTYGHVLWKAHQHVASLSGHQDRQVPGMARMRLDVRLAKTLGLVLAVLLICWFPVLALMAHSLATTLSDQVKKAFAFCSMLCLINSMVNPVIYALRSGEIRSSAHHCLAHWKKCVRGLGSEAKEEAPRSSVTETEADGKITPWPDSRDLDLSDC
T2 sequence (P21554 whole entry): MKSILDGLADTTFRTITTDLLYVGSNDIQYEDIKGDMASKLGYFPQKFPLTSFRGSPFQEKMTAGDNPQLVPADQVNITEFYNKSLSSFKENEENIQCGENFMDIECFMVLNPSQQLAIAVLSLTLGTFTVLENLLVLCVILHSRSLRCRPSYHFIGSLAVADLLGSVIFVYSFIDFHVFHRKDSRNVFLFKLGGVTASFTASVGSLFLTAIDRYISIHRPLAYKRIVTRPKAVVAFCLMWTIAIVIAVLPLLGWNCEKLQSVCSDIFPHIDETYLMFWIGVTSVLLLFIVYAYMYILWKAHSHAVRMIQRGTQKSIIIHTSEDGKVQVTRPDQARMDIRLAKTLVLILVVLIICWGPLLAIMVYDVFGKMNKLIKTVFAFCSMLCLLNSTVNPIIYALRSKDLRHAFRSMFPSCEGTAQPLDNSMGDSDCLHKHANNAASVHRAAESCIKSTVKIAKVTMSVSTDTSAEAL
T3 sequence (P47936 whole entry): as the sequence (P47936 whole entry) above

Cn1c(C(C)(C)C)cc(=NC(=O)c2cc(C(F)(F)F)ccc2OCC(C)(C)O)n1CC1CCC1
Ki (CB2 receptors [1]): 1.07 nM | Ki (human CB1 receptors): 3890 nM

[3H]C([3H])([3H])n1c(C(C)(C)C)c/c(=N\C(=O)c2cc(C(F)(F)F)ccc2OCC(C)(C)O)n1CC1CCC1 [Example 1, (NE)-N-[5-tert-butyl-2-(cyclobutylmethyl)-1-(tritritiomethyl)pyrazol-3-ylidene]-2-(2-hydroxy-2-methyl-propoxy)-5-(trifluoromethyl)benzamide]
specific binding (CB2 receptors [2]): high specific binding | saturability of specific binding (mouse CB2 receptors): saturable | CB2 receptor expression level (Bmax) (mouse CB2 receptors; saturation binding): 430 fmol/mg | Kd (mouse CB2 receptors; saturation binding, read-out: half maximal affinity (Kd)): 0.58 nM | specific binding [3]: lack of specific binding

CCCCCCC(C)(C)c1cc(OC)c(C2=C[C@H]3CC[C@]2(CO)C3(C)C)c(OC)c1 [HU-910]
binding to CB2 receptors (CB2 receptors [4]): selectively and competitively binds to CB2 receptors
